Test results: ChEMBL document CHEMBL4819076, “An affinity prediction approach for the ligand of E3 ligase Cbl-b and an insight into substrate binding pattern” (Bioorg Med Chem, 2021)
Where a SMILES comes first, the peptide text is derived from it. [ ]: non-standard residue; d: D form. pY = N[C@@H](Cc1ccc(OP(=O)(O)O)cc1)C(=O)O

Tests used:
[1] = target: T1, E3 ubiquitin-protein ligase CBL-B (Homo sapiens, UniProt Q13191); experiment: Binding affinity to recombinant His-tagged Cbl-b (unknown origin) (39 to 368 residues) expressed in Escherichia coli BL21 (DE3) assessed as dissociation constant by bio-layer interferometry assay
T1 sequence (Q13191 whole entry, the tested form may be a part): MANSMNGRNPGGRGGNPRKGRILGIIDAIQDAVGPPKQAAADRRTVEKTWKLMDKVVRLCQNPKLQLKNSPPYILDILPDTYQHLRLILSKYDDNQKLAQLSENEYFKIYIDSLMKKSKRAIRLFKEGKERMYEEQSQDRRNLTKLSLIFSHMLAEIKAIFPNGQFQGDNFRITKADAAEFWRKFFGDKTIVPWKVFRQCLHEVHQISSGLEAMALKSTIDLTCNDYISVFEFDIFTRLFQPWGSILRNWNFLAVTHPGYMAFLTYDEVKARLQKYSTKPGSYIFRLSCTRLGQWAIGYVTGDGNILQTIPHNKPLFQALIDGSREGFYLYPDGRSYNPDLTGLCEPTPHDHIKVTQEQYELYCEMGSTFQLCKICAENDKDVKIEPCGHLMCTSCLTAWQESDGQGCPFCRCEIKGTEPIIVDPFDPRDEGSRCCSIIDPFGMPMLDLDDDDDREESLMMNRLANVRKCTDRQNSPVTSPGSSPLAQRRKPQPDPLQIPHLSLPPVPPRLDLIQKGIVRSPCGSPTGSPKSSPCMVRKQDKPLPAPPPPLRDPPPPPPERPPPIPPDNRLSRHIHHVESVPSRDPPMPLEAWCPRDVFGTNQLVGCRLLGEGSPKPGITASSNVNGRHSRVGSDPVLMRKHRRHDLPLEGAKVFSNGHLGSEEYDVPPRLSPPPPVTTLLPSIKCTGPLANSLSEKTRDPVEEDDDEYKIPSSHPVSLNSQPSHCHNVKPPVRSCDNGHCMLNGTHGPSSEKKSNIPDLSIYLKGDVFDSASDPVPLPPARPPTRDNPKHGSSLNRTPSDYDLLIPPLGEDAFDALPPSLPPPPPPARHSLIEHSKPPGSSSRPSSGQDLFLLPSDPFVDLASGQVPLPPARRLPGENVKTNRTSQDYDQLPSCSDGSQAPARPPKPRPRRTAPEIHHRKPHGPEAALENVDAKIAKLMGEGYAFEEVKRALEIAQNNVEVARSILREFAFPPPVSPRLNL

[2] = target: T1, E3 ubiquitin-protein ligase CBL-B; experiment: Binding affinity to recombinant His-tagged Cbl-b (unknown origin) (39 to 368 residues) expressed in Escherichia coli BL21 (DE3) using FITC-DGpYPEPA-NH2 as substrate incubated for 30 mins by fluorescence polarization assay

Kd [1] [µM] | IC50 [2] [µM] | Compound
33.5 |  | CC(=O)N[C@@H](Cc1ccc(OP(=O)(O)O)cc1)C(=O)N[C@H](C(=O)N1CCC[C@H]1C(=O)N[C@@H](CCC(=O)O)C(=O)N[C@@H](Cc1ccccc1)C(N)=O)[C@@H](C)O (Ac-[pY]TPEF-NH2)
18.5 | 46.3 | CC(=O)N[C@@H](Cc1ccc(OP(=O)(O)O)cc1)C(=O)N[C@H](C(=O)N1CCC[C@H]1C(=O)N[C@@H](C)C(=O)N1CCC[C@H]1C(N)=O)[C@@H](C)O (Ac-[pY]TPAP-NH2)
22.4 | 11.3 | CC(=O)NCC(=O)N[C@@H](Cc1ccc(OP(=O)(O)O)cc1)C(=O)N[C@H](C(=O)N1CCC[C@H]1C(=O)N[C@@H](CCC(=O)O)C(=O)N1CCC[C@H]1C(N)=O)[C@@H](C)O (Ac-G[pY]TPEP-NH2)
 | > 1000 | C[C@@H](O)[C@H](NC(=O)[C@H](Cc1ccc(OP(=O)(O)O)cc1)NC(=O)CN)C(=O)N1CCC[C@H]1C(=O)N[C@@H](CCC(=O)O)C(=O)O (H-G[pY]TPE-OH)
43.4 |  | CC(=O)N[C@@H](Cc1ccc(OP(=O)(O)O)cc1)C(=O)N[C@H](C(=O)N1CCC[C@H]1C(=O)N[C@@H](CCC(N)=O)C(=O)N1CCC[C@H]1C(N)=O)[C@@H](C)O (Ac-[pY]TPQP-NH2)
57.1 | 104 | CC(=O)N[C@@H](Cc1ccc(OP(=O)(O)O)cc1)C(=O)N[C@@H](C)C(=O)N1CCC[C@H]1C(=O)N[C@@H](CCC(=O)O)C(=O)N1CCC[C@H]1C(N)=O (Ac-[pY]APEP-NH2)
98.3 | 398 | CC(=O)N[C@@H](Cc1ccc(OP(=O)(O)O)cc1)C(=O)N[C@H](C(=O)N1CCC[C@H]1C(=O)N[C@@H](CCC(=O)O)C(N)=O)[C@@H](C)O (Ac-[pY]TPE-NH2)
22.9 |  | CC(=O)N[C@@H](Cc1ccc(OP(=O)(O)O)cc1)C(=O)N[C@H](C(=O)N1CCC[C@H]1C(=O)N[C@@H](CC(=O)O)C(=O)N1CCC[C@H]1C(N)=O)[C@@H](C)O (Ac-[pY]TPDP-NH2)
24.4 | 27.3 | CC(=O)N[C@@H](Cc1ccc(OP(=O)(O)O)cc1)C(=O)N[C@H](C(=O)N[C@@H](C)C(=O)N[C@@H](CCC(=O)O)C(=O)N1CCC[C@H]1C(N)=O)[C@@H](C)O (Ac-[pY]TAEP-NH2)
24.4 | 10.6 | CC(=O)N[C@@H](CC(=O)O)C(=O)NCC(=O)N[C@@H](Cc1ccc(OP(=O)(O)O)cc1)C(=O)N[C@H](C(=O)N1CCC[C@H]1C(=O)N[C@@H](CCC(=O)O)C(=O)N1CCC[C@H]1C(=O)N[C@@H](C)C(N)=O)[C@@H](C)O (Ac-DG[pY]TPEPA-NH2)
35.5 |  | CC[C@H](C)[C@H](NC(=O)[C@@H](NC(=O)[C@H](Cc1ccc(OP(=O)(O)O)cc1)NC(C)=O)[C@@H](C)O)C(=O)N[C@@H](CCC(=O)O)C(=O)N1CCC[C@H]1C(N)=O (Ac-[pY]TIEP-NH2)
8.28 |  | CC(=O)N[C@@H](CC(C)C)C(=O)N[C@@H](CCC(N)=O)C(=O)N[C@@H](CCCNC(=N)N)C(=O)N[C@@H](Cc1ccc(OP(=O)(O)O)cc1)C(=O)N[C@@H](CO)C(=O)N[C@@H](CO)C(=O)N[C@@H](CC(=O)O)C(=O)N1CCC[C@H]1C(=O)N[C@H](C(=O)NCC(N)=O)[C@@H](C)O (Ac-LQR[pY]SSDPTG-NH2)
 | > 1000 | Ac-ETPEP-NH2
0.763 |  | CC(=O)N[C@@H](CCCNC(=N)N)C(=O)N[C@@H](Cc1ccc(OP(=O)(O)O)cc1)C(=O)N[C@H](C(=O)N1CCC[C@H]1C(=O)N[C@@H](CCC(=O)O)C(=O)N1CCC[C@H]1C(N)=O)[C@@H](C)O (Ac-R[pY]TPEP-NH2)
29.8 |  | CC(=O)N[C@@H](Cc1ccc(OP(=O)(O)O)cc1)C(=O)N[C@H](C(=O)N[C@@H](CC(C)C)C(=O)N[C@@H](CCC(=O)O)C(=O)N1CCC[C@H]1C(N)=O)[C@@H](C)O (Ac-[pY]TLEP-NH2)

Compound | Kd [1] [µM] | IC50 [2] [µM]
CC(=O)N[C@@H](Cc1ccc(OP(=O)(O)O)cc1)C(=O)N[C@H](C(=O)N1CCC[C@H]1C(=O)N[C@@H](CCC(=O)O)C(=O)N1CCC[C@H]1C(N)=O)[C@@H](C)O | 5.55 | 7.84
